Assay results as given in ChEMBL document CHEMBL1201862, “PubChem BioAssay data set” (2004).
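A five-concentration, 48-hour dose response in 96-well plates underlies each endpoint, interpolated linearly between surrounding concentrations. Here, GI50 denotes the concentration required for 50% inhibition of growth.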 The source made the active and inactive calls. Cut-off read from the data, not from the text of the source: active = GI50 up to about 1.1 µM and inactive = higher.

Assays:
Assay in all cases: growth of human tumour cells (NCI), 48 h
[1] = system: HCC 2998
[2] = system: MOLT-4
[3] = system: UACC-62
[4] = system: K562
[5] = system: LOX IMVI
[6] = system: COLO 205
[7] = system: A549
[8] = system: HCT-15
[9] = system: TK-10
[10] = system: KM12
[11] = system: OVCAR-8
[12] = system: HOP-92
[13] = system: NCI-H226
[14] = system: NCI-H522
[15] = system: OVCAR-4
[16] = system: OVCAR-5
[17] = system: Malme-3M
[18] = system: HOP-62
[19] = system: SF-539

Structure (SMILES)	GI50 [1]	GI50 [2]	GI50 [3]	GI50 [4]	GI50 [5]	GI50 [6]	GI50 [7]	GI50 [8] [µM]	GI50 [9]	GI50 [10]	GI50 [11]	GI50 [12]	GI50 [13]	GI50 [14]	GI50 [15]	GI50 [16]	GI50 [17]	GI50 [18]	GI50 [19]
CC1(C)NC(=O)N(CCCCCCN2C(=O)NC(C)(C)C2=O)C1=O	> 100 µM (inactive)	> 100 µM (inactive)	> 100 µM (inactive)	> 100 µM (inactive)	> 100 µM (inactive)	> 100 µM (inactive)	> 100 µM (inactive)	> 100	> 100 µM (inactive)	> 100 µM (inactive)	> 100 µM (inactive)	> 100 µM (inactive)	> 100 µM (inactive)	> 100 µM (inactive)	> 100 µM (inactive)	> 100 µM (inactive)	> 100 µM (inactive)	–	–
O=C(CO)CC(=O)C(=O)Nc1ccccc1	> 100 µM (inactive)	> 100 µM (inactive)	> 100 µM (inactive)	> 100 µM (inactive)	> 100 µM (inactive)	> 100 µM (inactive)	> 100 µM (inactive)	> 100	> 100 µM (inactive)	> 100 µM (inactive)	> 100 µM (inactive)	> 100 µM (inactive)	> 100 µM (inactive)	–	> 100 µM (inactive)	> 100 µM (inactive)	> 100 µM (inactive)	> 100 µM (inactive)	> 100 µM (inactive)
CCCCCCCCCCCCCCCC(=O)OCC1OC(n2cc(F)c(=O)[nH]c2=O)C(NC(=O)OCc2ccccc2)C(O)C1O (stereo unspecified)	16.3 µM (inactive)	18.2 µM (inactive)	17.1 µM (inactive)	14.5 µM (inactive)	17.1 µM (inactive)	17.4 µM (inactive)	18.9 µM (inactive)	18.5	19.6 µM (inactive)	20.8 µM (inactive)	17.7 µM (inactive)	15.9 µM (inactive)	–	–	20 µM (inactive)	19.1 µM (inactive)	2.79 µM (inactive)	–	16.4 µM (inactive)
COc1cc2c(cc1C)NC(=O)/C2=C/c1cccnc1	2.34 µM (inactive)	1.23 µM (inactive)	–	5.31 µM (inactive)	–	15.6 µM (inactive)	–	11	11.9 µM (inactive)	8.32 µM (inactive)	14.6 µM (inactive)	15.3 µM (inactive)	–	13 µM (inactive)	26.1 µM (inactive)	13.6 µM (inactive)	16.4 µM (inactive)	11.7 µM (inactive)	26.9 µM (inactive)
O=C1C2Cc3ccccc3CN2C(=O)N1CCN1CCCC1 (stereo unspecified)	> 100 µM (inactive)	> 100 µM (inactive)	> 100 µM (inactive)	> 100 µM (inactive)	> 100 µM (inactive)	> 100 µM (inactive)	> 100 µM (inactive)	> 100	> 100 µM (inactive)	> 100 µM (inactive)	> 100 µM (inactive)	–	> 100 µM (inactive)	> 100 µM (inactive)	> 100 µM (inactive)	> 100 µM (inactive)	> 100 µM (inactive)	> 100 µM (inactive)	> 100 µM (inactive)
O=c1/c(=C/c2ccc3c(c2)OCO3)sc2nnc(-c3ccco3)n12	> 100 µM (inactive)	> 100 µM (inactive)	> 100 µM (inactive)	> 100 µM (inactive)	> 100 µM (inactive)	> 100 µM (inactive)	> 100 µM (inactive)	–	> 100 µM (inactive)	> 100 µM (inactive)	> 100 µM (inactive)	–	> 100 µM (inactive)	> 100 µM (inactive)	> 100 µM (inactive)	> 100 µM (inactive)	> 100 µM (inactive)	> 100 µM (inactive)	> 100 µM (inactive)
Brc1ccc(-c2nnc(-c3nn(-c4ccccc4)c4nc5ccccc5nc34)o2)cc1	> 100 µM (inactive)	33.5 µM (inactive)	> 100 µM (inactive)	27 µM (inactive)	> 100 µM (inactive)	> 100 µM (inactive)	96.4 µM (inactive)	–	> 100 µM (inactive)	> 100 µM (inactive)	> 100 µM (inactive)	> 100 µM (inactive)	> 100 µM (inactive)	> 100 µM (inactive)	79.3 µM (inactive)	68.9 µM (inactive)	–	> 100 µM (inactive)	> 100 µM (inactive)
CSc1nc(C)cc(=O)n1C1OC(COC(C)=O)C(OC(C)=O)C(OC(C)=O)C1OC(C)=O (stereo unspecified)	> 100 µM (inactive)	> 100 µM (inactive)	> 100 µM (inactive)	> 100 µM (inactive)	> 100 µM (inactive)	> 100 µM (inactive)	> 100 µM (inactive)	> 100	> 100 µM (inactive)	> 100 µM (inactive)	> 100 µM (inactive)	–	> 100 µM (inactive)	> 100 µM (inactive)	> 100 µM (inactive)	> 100 µM (inactive)	> 100 µM (inactive)	> 10 µM (inactive)	–
COc1ccc(C[P+]2(c3ccccc3)CCCCC2)cc1.O=[N+]([O-])c1ccc(C[P+]2(c3ccccc3)CCCCC2)cc1.[O-][Cl+3]([O-])([O-])[O-].[O-][Cl+3]([O-])([O-])[O-]	> 100 µM (inactive)	63.8 µM (inactive)	39.2 µM (inactive)	56.1 µM (inactive)	67.5 µM (inactive)	52.5 µM (inactive)	> 100 µM (inactive)	> 100	> 100 µM (inactive)	75.5 µM (inactive)	> 100 µM (inactive)	–	–	–	> 100 µM (inactive)	> 100 µM (inactive)	19.3 µM (inactive)	77.1 µM (inactive)	> 100 µM (inactive)
C[C@@H](CCO)OC1OC(COC(=O)C(C)(C)C)C(OC(=O)C(C)(C)C)C(OC(=O)C(C)(C)C)C1OC(=O)C(C)(C)C (stereo partly specified)	16.6 µM (inactive)	12.9 µM (inactive)	48 µM (inactive)	89.7 µM (inactive)	51.4 µM (inactive)	> 100 µM (inactive)	14.1 µM (inactive)	32.4	50.7 µM (inactive)	> 10 µM (inactive)	96.8 µM (inactive)	13.2 µM (inactive)	20.9 µM (inactive)	11.7 µM (inactive)	27 µM (inactive)	> 100 µM (inactive)	–	85.5 µM (inactive)	33.4 µM (inactive)
Clc1ccc2c(c1)C1C(CO2)C(c2ccccc2)=NN1c1ccccc1 (stereo unspecified)	43.8 µM (inactive)	22 µM (inactive)	–	26.2 µM (inactive)	> 10 µM (inactive)	71.3 µM (inactive)	32.7 µM (inactive)	–	82.8 µM (inactive)	31.6 µM (inactive)	28.6 µM (inactive)	18.6 µM (inactive)	–	–	–	> 100 µM (inactive)	43 µM (inactive)	37 µM (inactive)	–
CCOC(=O)Nn1c(C)nnc1CC#N	> 100 µM (inactive)	> 100 µM (inactive)	> 100 µM (inactive)	> 100 µM (inactive)	> 100 µM (inactive)	–	> 100 µM (inactive)	> 100	> 100 µM (inactive)	> 100 µM (inactive)	> 100 µM (inactive)	58.9 µM (inactive)	> 100 µM (inactive)	> 100 µM (inactive)	–	> 100 µM (inactive)	> 100 µM (inactive)	> 100 µM (inactive)	> 100 µM (inactive)
O=[N+]([O-])c1cc(Cl)ccc1S(=O)(=O)c1ccc(Cl)cc1[N+](=O)[O-]	–	25 µM (inactive)	16.9 µM (inactive)	28.2 µM (inactive)	16.1 µM (inactive)	17 µM (inactive)	25.4 µM (inactive)	17.3	17.6 µM (inactive)	14.2 µM (inactive)	16 µM (inactive)	18.5 µM (inactive)	12.4 µM (inactive)	16.1 µM (inactive)	17.9 µM (inactive)	19.5 µM (inactive)	13.5 µM (inactive)	21.3 µM (inactive)	18 µM (inactive)
O=C(CCC(=O)Nc1ccc(Cl)c(Cl)c1)CC(=O)c1ccc(F)cc1	> 100 µM (inactive)	> 100 µM (inactive)	89.3 µM (inactive)	> 100 µM (inactive)	> 100 µM (inactive)	> 100 µM (inactive)	> 100 µM (inactive)	–	–	> 100 µM (inactive)	> 100 µM (inactive)	> 100 µM (inactive)	> 100 µM (inactive)	–	> 100 µM (inactive)	> 100 µM (inactive)	> 100 µM (inactive)	> 100 µM (inactive)	> 100 µM (inactive)
COc1cc2c(cc1O)CC13CCC(=O)N1CCc1cc(OC)c(O)c-2c13 (stereo unspecified)	> 68.1 µM (inactive)	> 68.1 µM (inactive)	> 68.1 µM (inactive)	> 68.1 µM (inactive)	> 68.1 µM (inactive)	> 68.1 µM (inactive)	> 68.1 µM (inactive)	> 68.1	> 68.1 µM (inactive)	–	> 68.1 µM (inactive)	> 68.1 µM (inactive)	> 68.1 µM (inactive)	–	> 68.1 µM (inactive)	> 68.1 µM (inactive)	> 68.1 µM (inactive)	> 68.1 µM (inactive)	> 68.1 µM (inactive)
COc1ccc(/C=C/CO)cc1OC	> 100 µM (inactive)	> 100 µM (inactive)	> 100 µM (inactive)	> 100 µM (inactive)	–	> 100 µM (inactive)	> 100 µM (inactive)	> 100	> 100 µM (inactive)	> 100 µM (inactive)	> 100 µM (inactive)	56.8 µM (inactive)	49.9 µM (inactive)	–	–	> 100 µM (inactive)	> 100 µM (inactive)	–	> 100 µM (inactive)
NCCOCCOCC(=O)O	> 100 µM (inactive)	> 100 µM (inactive)	> 100 µM (inactive)	> 100 µM (inactive)	–	–	> 100 µM (inactive)	> 100	> 100 µM (inactive)	> 100 µM (inactive)	> 100 µM (inactive)	> 100 µM (inactive)	> 100 µM (inactive)	> 100 µM (inactive)	> 100 µM (inactive)	> 100 µM (inactive)	> 100 µM (inactive)	–	> 100 µM (inactive)
